In US7910579B2, “Benzoxazole derivatives” (Tohoku University, priority 2006, dated 2011):
Where two headings read alike, the source gives them in different places.

Assays:
[1] = molecular target: T1, amyloid β protein in the brain section of an Alzheimer disease patient (Homo sapiens, UniProt P05067); test: Staining test on a brain section of an Alzheimer disease patient: amyloid β protein; type: binding; settings: for Binding to (staining of) amyloid β protein in the brain section of an Alzheimer disease patient: 100 μM solution in 50% ethanol, 10 minutes, paraffin brain section; for Specificity to amyloid β: statement in the description of formulae (II) to (VI)
T1 construct: from tissue; host or cells: paraffin-embedded temporal lobe and hippocampus of Alzheimer disease patients
T1 sequence (P05067 672-713 limits assumed): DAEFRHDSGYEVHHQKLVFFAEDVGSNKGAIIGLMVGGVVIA
Description: (1) Brain specimens at the temporal lobe and the hippocampus of patients to which a definitive diagnosis of Alzheimer disease had been given, and those of normal senile persons were used. The specimens were given by our coworker, Fukushimura Hospital, Longevity Medicine Institute, and we were given their consent of use of the specimens for our study purpose by the bereaved of the patients (Fukushimura Hospital Ethical Review Board Approval No. 20).
(2) The paraffin-embedded brain tissue was cut Into slices having a thickness of 6 μm or 8 μm, and extended and dried on a slide. The paraffin brain section was steeped for paraffin removal in xylene twice for 10 minutes, 100% ethanol twice for 5 minutes, 90% ethanol for 5 minutes and running water for 10 minutes in that order.
(3) For pretreatment prior to the staining treatment with a compound of the invention, the sections were steeped for autofluorescence removal with lipofuscin. First, the paraffin-removed sections were dipped in 0.25% KMnO4 solution for 20 minutes. These were washed with PBS, twice for 2 minutes, then dipped in 0.1% K2S2O5/oxalic acid solution for about 5 seconds, and then further washed with PBS, three times for 2 minutes.
(4) About 150 μl of a 100 μM solution of a compound of the invention dissolved in 50% ethanol was dropwise applied to the section and reacted for 10 minutes. After dipped five times in tap water, the section was entrapped with Fluor Save Reagent (Calbiochem), and analyzed through microscopy with a fluorescence microscope (Nikon, Eclipse 80i). The images were taken with a digital camera (Nikon Dxm 1200F or Photometrics' Cool SNAP ES).
(1) After paraffin removal, the sections were washed in distilled water, twice for 2 minutes. Then, using ImmunoPen, the tissue was marked with a surrounding line; about 150 μl of formic acid was dropwise applied to the section and statically left at room temperature for 5 minutes. The section was washed with tap water for 5 minutes, then dipped in cold PBS-Tween 20 for 2 minutes, and thereafter about 150 μl of 0.05% trypsin solution was dropwise applied to it and reacted at 37° C. for 15 minutes.
(2) In an ice bath, this was washed with cold PBS-Tween 20, twice for 5 minutes, and then 2 drops of blocking serum were applied to it and reacted at 37° C. for 30 minutes. Excess water was removed, and then about 150 μl of a specific antibody to amyloid β protein, 6F/3D (by DAKO, 1/50 dilution) was dropwise applied to it, and reacted at 37° C. for 1 hour.
(3) Further, this was washed with cold PBS-Tween 20, 5 times for 2 minutes, and then 2 drops of an anti-mouse IgG (H+L), goat, biotin-binding solution were applied to it and reacted at 37° C. for 1 hour. Then, this was washed with cold PBS-Tween 20, three times for 2 minutes, and 2 drops of an ABC solution (streptoavidin-biotin-peroxidase composite solution) were applied to it, and left statically as such for 30 minutes. Again this was washed with cold PBS-Tween 20, three times for 2 minutes, and then about 150 μl of a DAB solution (10 mg of DAB was dissolved in 20 ml of 0.05 mol/liter tris-HCl buffer, and just before use, 100 μl of 3% hydrogen peroxide water was added to it) was dropwise applied to it for sufficiently staining it. Then, this was washed with distilled water for 1 minute to stop the reaction, then entrapped and observed through microscopy.

Amyloid β protein 1-40 = molecular target: T2, Amyloid β protein 1-40 (Homo sapiens, UniProt P05067); test: Fluorescence Congo Red Method; type: binding; settings: 1 h, compound 10 μM, amyloid β protein 5 μM
T2 construct: Amyloid β protein 1-40 (bought from Peptide Laboratory); purchased Peptide Laboratory
T2 sequence (P05067 672-711): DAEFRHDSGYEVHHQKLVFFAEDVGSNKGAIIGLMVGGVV
Protocol: Next described is a screening method for the compounds of the invention. Some of the compounds of the invention could not be screened according to a Thioflavin T method, since their fluorescence wavelength overlaps with that of Thioflavin T. For such compounds, the following novel screening method was introduced. (1) Amyloid β protein 1-40 (bought from Peptide Laboratory) was dissolved in a phosphate buffer (pH 7.4) and left at 37° C. for 4 days. (2) 50 μl of Congo red dissolved in the buffer was applied to a 96-well microplate (final concentration, 0.1, 0.3, 1 μM). (3) 100 μl of amyloid β protein was added to it (final concentration 5 μM), and left as such for 30 minutes. (4) 100 μl of a test compound dissolved in the buffer was added to it (final concentration, 10 μM, and left as such for 60 minutes. (5) Using a fluorescence microplate reader (Spectra Max 190 by Molecular Device), the sample was analyzed at the optimum exciting wavelength and the test wavelength that had been previously determined. (6) The fluorescence intensity in the presence of the test compound, amyloid β protein and Congo red is represented by A; that in the presence of the test compound and Congo red is by B; that in the presence of the test compound and amyloid β protein is by C; and that in the presence of only the test compound is by D. The β structure recognition of the test compound is computed according to the following formula: β structure recognition (%) of test compound={(A−B)/(C−D)}×100. (7) It may be said that the test compound having a higher β structure recognition percentage may have higher binding specificity to amyloid β protein.

Acute Toxicity Test = type: in vivo; settings: Crj:CD1 male mice, tail vein, observed for 7 days
Protocol: The compounds of the invention were tested for their acute toxicity through intravenous administration thereof to mice. Four Crj:CD1 male mice formed one test group, and some test groups of those mice were used (the mean body weight of the mice of each group was from 31 to 32 g). A test compound was dissolved in a mixture of 1 N HCl, polyethylene glycol-400 and distilled water, or dissolved in DMSO, and then diluted with distilled water. This was administered to each mouse via its tail vein.

[2] = Congo red 0.1 μM, read-out: Binding Percentage of Compound in the presence of 0.1 μM CR
[3] = Congo red 0.3 μM, read-out: Binding Percentage of Compound in the presence of 0.3 μM CR
[4] = Congo red 1 μM, read-out: Binding Percentage of Compound in the presence of 1 μM CR

SMILES | Binding to (staining of) amyloid β protein in the brain section of an Alzheimer disease patient [1] | Specificity to amyloid β [1] | activity at 10 µM (Amyloid β protein 1-40; [2]) [%] | activity at 10 µM (Amyloid β protein 1-40; [3]) [%] | activity at 10 µM (Amyloid β protein 1-40; [4]) [%] | Maximum Permissible Dose (mg/kg, intravenous administration) (Acute Toxicity Test)
CN(C)c1ccc(/C=C\C=C2C(=O)c3ccccc3C2=O)cc1 [THK-248, 2-[3-(4-dimethylamino-phenyl)-allylidene]-indane-1,3-dione] | bound to the amyloid β protein | high specificity to amyloid β | – | – | – | –
CN(C)c1ccc(/C=C/C23NC(=O)CN2c2ccc(Br)cc2C3(C)C)cc1 (centres unmarked) [THK-556, 7-bromo-9a-[2-(4-dimethyl-amino-phenyl)-vinyl]-9,9-dimethyl-9,9a-dihydro-1H-imidazo[1,2-a]indol-2-one] | bound to the amyloid β protein | high specificity to amyloid β | – | – | – | –
Cc1ccc2c(c1)C(C)(C)C1(/C=C/C=C/c3ccc(N(C)C)cc3)NC(=O)CCN21 (centres unmarked) [THK-565] | bound to the amyloid β protein | high specificity to amyloid β | – | – | – | –
OCC(CF)Oc1ccc2nc(/C=C/c3cnc(N4CCCOC4)s3)oc2c1 (centres unmarked) [THK-757, (E)-6-[(1-fluoromethyl-2-hydroxy)ethoxy]-2-[2-[2-([1,3]oxadinan-3-yl)-thiazol-5-yl]ethenyl] benzoxazole] | – | – | 52.4 | 24.8 | 10.3 | ≧10 mg/kg
OCC(CF)Oc1ccc2nc(/C=C/c3cnc(N4CCCCCC4)s3)oc2c1 (centres unmarked) [THK-765, (E)-6-[(1-fluoromethyl-2-hydroxy)ethoxy]-2-[2-[2-(homopiperidin-1-yl)thiazol-5-yl]ethenyl]benzoxazole] | – | – | 71.2 | 41.3 | 23 | ≧10 mg/kg
OCC(CF)Oc1ccc2nc(/C=C/c3cnc(N4CCCOCC4)s3)oc2c1 (centres unmarked) [THK-766, (E)-6-[(1-fluoromethyl-2-hydroxy)ethoxy]-2-[2-[2-homomorpholinothiazol-5-yl)ethenyl]benzoxazole] | white space arrow indicates amyloid β protein | – | 61 | 21.5 | 11.2 | ≧10 mg/kg

Second part, led by results:

Binding to (staining of) amyloid β protein in the brain section of an Alzheimer disease patient [1] | Specificity to amyloid β [1] | SMILES | activity at 10 µM (Amyloid β protein 1-40; [2]) [%] | activity at 10 µM (Amyloid β protein 1-40; [3]) [%] | activity at 10 µM (Amyloid β protein 1-40; [4]) [%] | Maximum Permissible Dose (mg/kg, intravenous administration) (Acute Toxicity Test)
bound to the amyloid β protein | high specificity to amyloid β | CN(C)c1ccc(-c2nnc(-c3sc4cc(Cl)ccc4c3Cl)o2)cc1 [THK-262, [4-[5-(3,6-dichloro-benzo[b]thiophen-2-yl)-[1,3,4]oxadiazol-2-yl]-phenyl]-dimethylamine] | – | – | – | –
bound to the amyloid β protein | high specificity to amyloid β | O=C1Nc2ccc(Cl)cc2/C1=C/c1ccc(N2CCOCC2)cc1 [THK-276, 5-chloro-3-(4-morpholin-4-yl-benzylidene)-1,3-dihydroindol-2-one] | – | – | – | –
bound to the amyloid β protein | high specificity to amyloid β | O=C1Nc2ccc(Cl)cc2/C1=C/c1ccc(N2CCOCC2)s1 [THK-308, 5-chloro-3-(5-morpholin-4-yl-thiophen-2-ylmethylene)-1,3-dihydroindol-2-one] | – | – | – | –
bound to the amyloid β protein | high specificity to amyloid β | c1csc(-c2nnc(-c3ccc(N4CCOCC4)cc3)o2)c1 [THK-383, 4-[4-(5-thiophen-2-yl-[1,3,4]oxadiazol-2-yl)-phenyl]-morpholine] | – | – | – | –
bound to the amyloid β protein | high specificity to amyloid β | CN(C)c1ccc(/C=C/C23NC(=O)CCN2c2ccc(Br)cc2C3(C)C)cc1 (centres unmarked) [THK-558, 8-bromo-10a-[2-(4-dimethyl-amino-phenyl)-vinyl]-10,10-dimethyl 1-3,4,10,10a-tetrahydro-1H-pyrimido[1,2-a]indol-2-one] | – | – | – | –
